# Tested on: PR8
# Parameters: species or system mice
# Conditions: mouse, in vivo
structure (smiles),measurement,value
"CCCCOC(=O)c1ccccc1C(=O)OCCCC [DBP, dibutylphthalate]",survival of a lethal dose of virus,mice survived a lethal dose of virus

# From patent publication US20150307938A1, “METHOD TO IDENTIFY A NOVEL CLASS OF IMMUNOLOGIC ADJUVANTS” (Lancell, L.L.C., priority 2011, published 2015)
